Earlier results, collected in patent US20190231704A1 (Yale University, priority 2016, published 2019).
pIC50: −log10 of the molar value.

Target: T1, ALK4 (Homo sapiens, UniProt P36896)
T1 sequence (P36896 24-505): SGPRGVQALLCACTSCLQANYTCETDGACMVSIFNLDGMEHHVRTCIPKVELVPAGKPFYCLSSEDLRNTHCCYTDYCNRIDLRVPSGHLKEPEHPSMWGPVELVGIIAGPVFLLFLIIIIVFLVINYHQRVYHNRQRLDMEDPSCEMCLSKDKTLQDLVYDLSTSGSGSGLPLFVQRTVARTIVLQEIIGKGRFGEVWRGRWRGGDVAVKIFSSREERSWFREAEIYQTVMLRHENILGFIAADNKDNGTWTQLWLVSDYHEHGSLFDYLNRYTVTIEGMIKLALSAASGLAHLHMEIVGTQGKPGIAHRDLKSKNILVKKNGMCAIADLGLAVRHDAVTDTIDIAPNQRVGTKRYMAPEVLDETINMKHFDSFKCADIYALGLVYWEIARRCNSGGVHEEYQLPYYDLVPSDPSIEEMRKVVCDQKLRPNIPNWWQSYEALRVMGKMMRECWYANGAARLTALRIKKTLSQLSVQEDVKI

Cc1cccc(-c2[nH]c(C(C)(C)C)nc2-c2ccc3c(c2)OCO3)n1 [SB-505124]
pIC50: 6.89
